Measurements taken from ChEMBL document CHEMBL1153899, “Discovery of benzothiazole derivatives as efficacious and enterocyte-specific MTP inhibitors” (Bioorg Med Chem Lett, 2009).

Columns and labels:
HepG2 = assay: Inhibition of apoB secretion in human HepG2 cells after 40 hrs by ELISA; type: functional, cell-based; details: HepG2, 40 h
[1] = Inhibition of MTP from dog liver microsomes by scintillation counting; set-up: species or system Canis lupus familiaris, Microsome

| SMILES | IC50 (HepG2) | IC50 [1] |
| --- | --- | --- |
| CN(Cc1ccccc1)C(=O)[C@@H](NC(=O)c1cc2cc(NC(=O)c3ccccc3-c3ccc(C(F)(F)F)cc3)ccc2n1C)c1ccccc1 [DIRLOTAPIDE] | 4 nM | 2 nM |
| CC(C)(C)c1ccc(-c2ccccc2C(=O)Nc2ccc3nc(C(=O)N[C@H](C(=O)N4CCCC4)c4ccccc4)sc3c2)cc1 | 1.5 nM | 2.6 nM |
| CCCCCNC(=O)[C@@H](NC(=O)c1nc2ccc(NC(=O)c3ccccc3-c3ccc(C(C)(C)C)cc3)cc2s1)c1ccccc1 | 3.1 nM | 8.4 nM |
| CC(C)(C)c1ccc(-c2ccccc2C(=O)Nc2ccc3nc(C(=O)N[C@@H](C(=O)N4CCCC4)c4ccccc4)sc3c2)cc1 | 34.8 nM |  |
